Laboratory results published in patent US11497788B2, “Supramolecular glycosaminoglycans” (Northwestern University, priority 2015, dated 2022).
Entries after “also recorded” stand apart in the source; their conditions may differ. Values belong to the compound of their own block, whether it stands above or below them. Residues, ends and D or L forms follow the SMILES beside them. Groups on a side chain read outwards from the residue. *: point of attachment. X1 = CC(=O)NC1C(O)[C@H](O)C(COS(=O)(=O)O)O[C@H]1OCCn1cc(CCC(=O)*)nn1; X2 = O=C(O)C1O[C@@H](OCCn2cc(CCC(=O)*)nn2)C(O)C(O)[C@@H]1O; Acetyl(2-(HOCH2CH2OCH2CH2O)) = O=C(COCCOCCO)*; AEEA = NCCOCCOCC(=O)O; Propionyl = CCC(=O)*

How the values were obtained:
[1] = system: BMP-2 signaling in C2C12 cells; test: C2C12 osteoblast differentiation with BMP-2, alkaline phosphatase (ALP) activity; type: cell-based, mouse; conditions: for effect on BMP-2 activity / osteoblast differentiation (in words) / level of ALP expression relative to BMP-2 alone (factor): C2C12, BMP-2 75 ng/mL
Procedure: (§1) C2C12 Cell Culture: C2C12 mouse myoblasts (ATCC) were maintained in Dulbecco's Modified Eagle's Medium with high glucose and L-glutamine (DMEM, ATCC), supplemented with 100 U/mL of penicillin and 100 μg/mL streptomycin (P/S, Life Technologies) and 10% heat inactivated FBS (Life Technologies), and passaged at 80-90% confluence. Media was changed every 2 days. Passages 3 to 8 were used for experiments. Cells were grown at 37° C., 5% CO2 in a humidified atmosphere. Cells were detached following a 3 minute incubation at 37° C. with 0.05% Trypsin-EDTA (Life Technologies), then resuspended in DMEM (10% FBS). Unless stated otherwise, cells were seeded at 75,000 cells/mL (400 μL/well in a 48-well plate), and allowed to attach for a minimum of 3 hours prior to experiments.
C2C12 Osteoblast Differentiation: PA samples were thermally annealed as described for Cryo-TEM. PA solutions were spun down, pipetted for homogeneous mixing, then diluted to 1 mM with DMEM (no FBS). In a 1.5 mL microcentrifuge tube, PA solutions were further diluted with DMEM (5% FBS), gently vortexed, and appropriate amounts of GFs (20 μg/mL) were added to yield [PA]=125 μM and [GF]=375 ng/mL. For mixing, the microcentrifuge tube was gently inverted several times by hand. Following, cells were treated by adding a 100 μl, of the PA/GF mixture per well (48-well plate), yielding a final 500 μl, differentiation medium with [PA]=25 μM and [GF]=75 ng/mL. For controls, the initial 5 mM PA solution was substituted with either PBS alone (saline) or heparin in PBS at appropriate concentrations. Cells were cultured for 3 days without changing the media, and osteoblast differentiation was assessed.
Alkaline Phosphatase Activity: Alkaline phosphatase (ALP) activity was measured as a marker of osteoblast differentiation (ref. 38; incorporated by reference in its entirety). On day 3, media was removed, and cells were lysed with a 100 μL, of M-PER Mammalian Protein Extraction Reagent (Life Technologies), supplemented with 1×Halt Protease Inhibitor Cocktail (Thermo Fisher Scientific), for 30 minutes on an orbital shaker. A 20 μL, volume of the cell lysate was incubated with 200 μL, of the QUANTI-Blue colorimetric ALP assay (InvivoGen) for 30 minutes to 2 hours at 37° C., in duplicates. The ALP activity was assessed by reading the OD at 630 nm with Cytation3 microplate reader (BioTek). Data were normalized to the respective endogenous DNA levels using Quant-iT PicoGreen dsDNA Assay Kit (Life Technologies). Two separate experiments with 4 replicates each were averaged for statistical analysis. […]

[2] = system: BMP-2, BMP-4, noggin, Shh, VEGF, FGF-1, FGF-2; test: Surface plasmon resonance (SPR) binding to immobilized heparin binding GFs; parameters: species or system human (Noggin murine); conditions: analytes 50-500 nM; GFs immobilized on alginate surface; 25° C.
Procedure: (§2) Surface Plasmon Resonance: The binding interactions between PAs (analytes) and growth factors (ligands) were analyzed via surface plasmon resonance (SPR) using a ProteON XPR36 system (Bio-Rad Laboratories). PA samples were thermally annealed as described for Cryo-TEM. PA solutions were spun down, pipetted for homogeneous mixing, and sequentially diluted to appropriate concentrations using Tween buffer (Milli-Q water, 0.05% Tween-20). Lyophilized powders of GFs were reconstituted to 5 μM without any carrier proteins according to the manufacturer's instructions. BMP-2, BMP-4, Shh, VEGF, and FGF-2 were further diluted to 200 nM in ProteOn Acetate Buffer pH 5.5, while FGF-1 was diluted to 200 nM in ProteOn Acetate Buffer pH 4.5. Noggin was diluted to 300 nM in ProteOn Acetate Buffer pH 5.5.
GFs were immobilized on a ProteOn GLC-Chip via amino coupling as described previously, with slight modifications (37). First, the alginate surface was activated with a freshly prepared mixture of 20 mM 1-Ethyl-3-[3-dimethylaminopropyl]carbodiimide hydrochloride (EDC) and 5 mM N-hydroxysulfosuccinimide (Sulfo-NHS) in Milli-Q water (vertical flow cells, 30 μL/min, 3 min). Following, GFs were immobilized on vertical flow cells 1 to 5 by perfusing a freshly prepared 200 nM (or 300 nM) solution over the activated alginate surface (30 μL/min, 5 min). Blank buffer was perfused on vertical cell 6 as a reference. The remaining esters were deactivated with 1 M ethanolamine (30 μL/min, 3 min). The association and dissociation phases were performed at 25° C. in Tween buffer. Prior to each analyte injection, the horizontal flow cells 1 to 6 were regenerated with 10 mM NaOH (100 μL/min, 30 sec) and washed once with Tween buffer (30 μL/min, 3 min). Varied analyte concentrations were injected to horizontal flow cells 1 to 5, with flow cell 6 as a reference (30 μL/min, 5 min), followed by dissociation with Tween buffer (30 μL/min, 10 min). For analysis, SPR sensorgram from the reference flow cell was subtracted from all measurement flow cells. Interaction data were evaluated using the BIAEvaluation 4.1 software. […]

[3] = Zeta potential measurements; type: physicochemical
Procedure: Zeta Potential Measurements: Zeta (ζ) potential was measured using a Malvern Zetasizer Nano ZS (n=3). PA samples were thermally annealed as described for Cryo-TEM. Following, PAs were diluted to 0.5 mM in DMEM. PA solutions were water-bath sonicated for 1 min prior to zeta potential measurement. Background reading from DMEM alone was subtracted from the final measurements.

[4] = biological target: T1, BMP-4 (Homo sapiens, UniProt P12644); test: SPR binding to BMP-4; conditions: azide-derivative, not assembled
T1 construct: from E. coli were purchased from PeproTech, in their mature forms; purchased PeproTech; host or cells: E. coli
T1 sequence (P12644 293-408): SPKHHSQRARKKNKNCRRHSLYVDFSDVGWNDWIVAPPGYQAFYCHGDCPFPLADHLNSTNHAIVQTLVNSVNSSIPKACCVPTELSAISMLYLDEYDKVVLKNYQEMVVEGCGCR
Procedure: as §2
(§3) GFs were immobilized on a ProteOn GLC-Chip via amino coupling as described previously, with slight modifications (37). First, the alginate surface was activated with a freshly prepared mixture of 20 mM 1-Ethyl-3-[3-dimethylaminopropyl]carbodiimide hydrochloride (EDC) and 5 mM N-hydroxysulfosuccinimide (Sulfo-NHS) in Milli-Q water (vertical flow cells, 30 μL/min, 3 min). […] Interaction data were evaluated using the BIAEvaluation 4.1 software. […]

[5] = biological target: T2, BMP-2 (Homo sapiens, UniProt P12643); test: SPR binding to BMP-2; conditions: azide-derivative, not assembled
T2 construct: purchased Medtronic Sofamor Danek (Minneapolis, Minn.)
T2 sequence (P12643 283-396): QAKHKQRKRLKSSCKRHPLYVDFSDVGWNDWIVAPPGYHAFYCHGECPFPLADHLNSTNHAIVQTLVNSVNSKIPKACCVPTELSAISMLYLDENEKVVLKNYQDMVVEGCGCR
Procedure: as §2, §3

[6] = biological target: T2, BMP-2; test: BMP-2 stability assay (ELISA) in C2C12 culture; type: cell-based; conditions: 75 ng/mL BMP-2; 0, 3, 9, 24 h
Procedure: BMP-2 Stability Assay: C2C12 cells were seeded at 150,000 cells/mL (500 μL/well in a 48-well plate) and incubated overnight. Following, the media was replaced with treatment media (75 ng/mL BMP-2 in the presence/absence of PA 1, PA 4, and monosaccharide 1. The media was collected at 0, 3, 9, and 24 h and stored at −80° C. prior to BMP-2 quantification. In addition, the cell monolayers were lysed at the indicated time with a 100 μL of M-PER Mammalian Protein Extraction Reagent, supplemented with 1×Halt Protease Inhibitor Cocktail, and also stored at −80° C. prior to BMP-2 quantification. The amount of BMP-2 present in the media and cell extracts was assayed using a BMP-2 Quantikine ELISA kit (R&D Systems) according to the manufacturer's specifications.

[7] = system: BMP-4 signaling in C2C12 cells; test: C2C12 osteoblast differentiation with BMP-4, ALP activity; type: cell-based, mouse
Procedure: as §1
C2C12 Osteoblast Differentiation: PA samples were thermally annealed as described for Cryo-TEM. PA solutions were spun down, pipetted for homogeneous mixing, then diluted to 1 mM with DMEM (no FBS). […] Cells were cultured for 3 days without changing the media, and osteoblast differentiation was assessed.
Alkaline Phosphatase Activity: Alkaline phosphatase (ALP) activity was measured as a marker of osteoblast differentiation (ref. 38; incorporated by reference in its entirety). […] The ALP activity was assessed by reading the OD at 630 nm with Cytation3 microplate reader (BioTek). […]

binding to heparin binding GFs (SPR) [2]: moderate binding
Compound: heparin [reference compound]
effect on BMP-2 activity / osteoblast differentiation (in words) ([1]; 3 days): dose response increase; also recorded: more potent response than HS | level of ALP expression relative to BMP-2 alone (factor) ([1]; 3 days): 5

Compound: CCC(=O)N[C@H](C(=O)N[C@H](C(=O)N[C@@H](C)C(=O)N[C@@H](C)C(=O)N[C@@H](CCC(=O)O)C(=O)N[C@@H](CCC(=O)O)C(=O)N[C@@H](CCCCNC(=O)COCCOCCNC(=O)CCc1cn(CCO[C@@H]2OC(C(=O)O)[C@@H](O)C(O)C2O)nn1)C(N)=O)C(C)C)C(C)C (stereo partly shown) [PA 3, GlcA PA] (Propionyl-VVAAEEK([AEEA-X2])-NH2)
effect on BMP-2 activity / osteoblast differentiation (in words) ([1]; 3 days): did not potentiate | ALP activity, PA co-assembled with PA 6 ([1]; incorporated at the level of 10% or higher in PA 6, 25 μM PA, BMP-2 75 ng/mL): not to enhanced | zeta potential / net charge of nanofibers [3]: comparable zeta potentials

Compound: CCC(=O)N[C@H](C(=O)N[C@H](C(=O)N[C@@H](C)C(=O)N[C@@H](C)C(=O)N[C@@H](CCC(=O)O)C(=O)N[C@@H](CCC(=O)O)C(=O)N[C@@H](CCCCNC(=O)COCCOCCNC(=O)CCc1cn(CCO[C@@H]2OC(COS(=O)(=O)O)[C@@H](O)C(O)C2NC(C)=O)nn1)C(N)=O)C(C)C)C(C)C (stereo partly drawn) [PA 2, 6S-GlcNAc PA] (Propionyl-VVAAEEK([AEEA-X1])-NH2)
increase in BMP-2 signaling (ALP activity) ([1]; nanofibers containing the monosulfated monosaccharide, density not stated, 25 μM PA, BMP-2 75 ng/mL): 3 fold | zeta potential / net charge of nanofibers [3]: comparable zeta potentials

binding to BMP-4 (SPR) [4]: bound neither | binding to BMP-2 (SPR) [5]: bound neither | BMP-2 stability in cell culture media [6]: not | binding to heparin binding GFs (SPR) [2]: essentially does not bind
Compound: 2-Azidoethyl 2-acetamido-3,4,6-tri-O-sulfo-2-deoxy-β-D-glycopyranoside [monosaccharide 1]
effect on BMP-2 activity / osteoblast differentiation (in words) ([1]; 3 days): not to be the case | amplification of BMP-4 signaling [7]: not to be the case

Compound: Heparan sulfate [reference compound]
effect on BMP-2 activity / osteoblast differentiation (in words) ([1]; 3 days): dose response increase | level of ALP expression relative to BMP-2 alone (factor) ([1]; 3 days): 3

zeta potential / net charge of nanofibers [3]: screened the net negative charge
Compound: CCC(=O)N[C@H](C(=O)N[C@H](C(=O)N[C@@H](C)C(=O)N[C@@H](C)C(=O)N[C@@H](CCC(=O)O)C(=O)N[C@@H](CCC(=O)O)C(=O)N[C@@H](CCCCNC(=O)COCCOCCO)C(N)=O)C(C)C)C(C)C [PA 5, OEG PA] (Propionyl-VVAAEEK(Acetyl(2-(HOCH2CH2OCH2CH2O)))-NH2)
effect on BMP-2 activity / osteoblast differentiation (in words) ([1]; 3 days): negligible effect

Compound: CCC(=O)N[C@H](C(=O)N[C@H](C(=O)N[C@@H](C)C(=O)N[C@@H](C)C(=O)N[C@@H](CCC(=O)O)C(=O)N[C@@H](CCC(=O)O)C(N)=O)C(C)C)C(C)C [PA 6, E2 PA] (Propionyl-VVAAEE-NH2)
increase in ALP activity ([1]; PA 6 alone, 0% monosaccharide density, 25 μM PA, BMP-2 75 ng/mL, 3 days): 5 fold
